In patent publication US20090298691A1, “METHODS AND COMPOSITIONS FOR CONTROL OF AQUATIC WEEDS USING HERBICIDAL COMBINATIONS WITH FLURIDONE” (priority 2008, published 2009):

Tests used:
soft-stem bulrush = assay: Example 7: greenhouse mesocosm selectivity trial, 60-day exposure, aboveground shoot biomass; type: in vivo, Scirpus validus; details: total parts per billion, non-linear regression
Description: (§1) Five different native aquatic plants were acquired from a Florida supplier (Aquatic Plants of Florida, Sarasota, Fla.). These species were jointed spikerush (Eleocharis interstincta), spatterdock (Nuphar advena), soft-stem bulrush (Scirpus validus), and maidencane (Panicum hemitomon), and tapegrass (Vallisneria americana). The final native species in the trial—Egyptian panicgrass or Kissimmee ‘Knotgrass’ (Paspalidium geminatum)—and fluridone-resistant hydrilla were collected from West Lake Tohopekaliga (Osceola County, FL). Transplanted tissue for each native species included both young fresh shoot growth and a portion of root stock/rhizome. Hydrilla was planted as 30 cm sections of fresh apical shoot growth. All plants were transplanted into commercial retail topsoil amended with slow-release granular 14-14-14 fertilizer at rate of 2.5 g fertilizer per kg soil. Spatterdock rhizomes were transplanted into 11.4L plastic garden pots, while all other species were transplanted into 1.9-L pots. Soil in each pot was capped with a layer of sand. […]
(§2) Three weeks after transplanting, herbicide stock solutions were used to apply either fluridone or penoxsulam alone or in combination. […] Four replicate pots of each species were harvested at time of treatment to quantify pre-treatment aboveground biomass. […]

jointed spikerush = assay: as above; type: in vivo, Eleocharis interstincta; details: total parts per billion, non-linear regression
Description: as §1, §2

[1] = system: fluridone resistant hydrilla biotype (Lake Cypress); assay: Example 3: hydrilla in 14 L cylinders, 56 days exposure, dry weights; type: in vivo, Hydrilla verticillata; details: 3 ppb
Description: (§3) Hydrilla was collected from two sources in Florida representing a fluridone resistant biotype (Lake Cypress) and a fluridone susceptible biotype. Apical sections containing a single meristem were planted in small pots (13.5 cm length×3.75 cm diameter) containing potting soil and amended with Osmocote fertilizer. Each biotype were placed into 14 L cylinders and allowed to establish growth prior to treatment. Treatments were replicated three times and included: controls, penoxsulam or fluridone at 3 and 6 ppb; combinations of fluridone+penoxsulam (1:1 ratio) at 6 ppb (3 ppb of each). Plants were exposed for 56 days and then harvested to determine dry weights. At 14 days after treatment (DAT) net photosynthesis from exposed plant tissue was measured.

[2] = system: fluridone susceptible hydrilla biotype; assay: as above; type: in vivo, Hydrilla verticillata; details: 3 ppb
Description: as §3

spatterdock = assay: Example 7: greenhouse mesocosm selectivity trial, 60-day exposure, aboveground shoot biomass; type: in vivo, Nuphar advena; details: total parts per billion, non-linear regression
Description: as §1, §2

[3] = system: Hydrilla (FR), fluridone-resistant hydrilla; assay: as above; type: in vivo, Hydrilla verticillata; details: total parts per billion, non-linear regression
Description: as §1, §2

[4] = system: Lake Okahumpka hydrilla (fluridone resistant biotype); assay: Example 1: hydrilla in 14 L cylinders, 25 days of exposure, total stem length and fresh weight; type: in vivo, Hydrilla verticillata; details: 12 ppb (combination 6 ppb each)
Description: (§4) Apical sections of hydrilla were collected from Rainbow River and Lake Okahumpka, Fla. Hydrilla in Lake Okahumpka is known to have developed increased tolerance to fluridone (FRH). The biotype from Rainbow River has never been exposed to fluridone and is presumably fluridone susceptible. Apical sections were planted in potting soil amended with Osmocote fertilizer in small pots (13.5 cm length×3.75 cm diameter). A 2.54 cm sand layer was placed over the top of the potting soil. Pots containing each biotype of hydrilla were placed into 14 L acrylic cylinders and allowed to establish slight growth prior to treatment. Cylinders were then treated with penoxsulam (P) or fluridone (F) at 12 ppb, and fluridone+penoxsulam (1:1 ratio) at 6 ppb (3 ppb each) and 12 ppb (6 ppb each). All treatments were replicated 4 times. After 25 days of exposure, plants were harvested and total stem length and fresh weights were measured.

tapegrass = assay: Example 7: greenhouse mesocosm selectivity trial, 60-day exposure, aboveground shoot biomass; type: in vivo, Vallisneria americana; details: total parts per billion, non-linear regression
Description: as §1, §2

[5] = system: panicgrass (Egyptian panicgrass, Kissimmee 'Knotgrass'); assay: as above; type: in vivo, Paspalidium geminatum; details: total parts per billion, non-linear regression
Description: as §1, §2

maidencane = assay: as above; type: in vivo, Panicum hemitomon; details: total parts per billion, non-linear regression
Description: as §1, §2

[6] = system: Lake Cypress hydrilla (fluridone resistant biotype); assay: Example 2: hydrilla in 14 L cylinders, c.a. 30 days exposure, plant weights; type: in vivo, Hydrilla verticillata; details: for biomass reduction: 6 ppb
Description: (§5) Hydrilla was collected from three sources in Florida; two representing fluridone resistant biotypes (Lake Okahumpka and Lake Cypress) and one fluridone susceptible biotypes (CAIP). Apical sections containing a single meristem were planted in small pots (13.5 cm length×3.75 cm diameter) containing potting soil and amended with Osmocote fertilizer. Each biotype were placed into 14 L cylinders and allowed to establish growth for 6-days prior to treatment. Treatments were replicated three times and included: controls, penoxsulam 6 and 12 ppb; fluridone 6 and 12 ppb; combinations of fluridone+penoxsulam (1:1 ratio) at 12 ppb (6 ppb each). Plants were exposed for c.a. 30 days and then harvested to determine plant weights.

[7] = system: Lake Okahumpka hydrilla (fluridone resistant biotype); assay: as above; type: in vivo, Hydrilla verticillata; details: for biomass reduction: 6 ppb
Description: as §5

[8] = system: CAIP hydrilla (fluridone susceptible biotype); assay: as above; type: in vivo, Hydrilla verticillata; details: 6 ppb
Description: as §5

target plant = details: Sonar A.S. label; cited from earlier work
hydrilla [9] = details: literature; cited from earlier work
Eurasian watermilfoil = assay: Example 5: Eurasian watermilfoil in 12 L tanks, 40 day exposure, root and shoot dry weights; type: in vivo; details: 75 ppb; 40 days
Description: Apical sections (12 to 15 cm in length) of Eurasian watermilfoil (EWM) were taken from Sweetwater Lake, Ind. and from culture and planted into small pots (13.5 cm length×3.75 cm diameter) containing Wallace Farm® topsoil amended with 14-14-14 slow release Osmocote® fertilizer (˜2.5 g Osmocote/kg soil). Approximately 5 to 7 cm of the apical section extended above the sediment at planting, and a sand cap was placed over the potting soil (˜2 cm deep). Plants were then transferred to a 12 L acrylic tanks filled with well water. Plants were allowed to grow for 7 days before the following treatment was initiated in triple replicate:
Plants were harvested at 40 days. At harvest, plants were rinsed free of algae, roots and shoots were separated, and placed in paper sacks in a drying oven for 4 days at 70° C. temperature, and dry weights were determined (FIG. 6).

[10] = system: Rainbow River hydrilla (fluridone susceptible); assay: Example 1: hydrilla in 14 L cylinders, 25 days of exposure, total stem length and fresh weight; type: in vivo; details: Hydrilla verticillata, 600 h, 12 ppb (combination 6 ppb each), read-out: stem length inhibited compared to control plants
Description: as §4

hydrilla [11] = assay: Contact time of penoxsulam alone under operational field use; type: in vivo, Hydrilla verticillata

Row | Compound | Calculated EC50 on shoot biomass (soft-stem bulrush) [ppb] | Calculated EC50 on shoot biomass (jointed spikerush) [ppb] | reduction in biomass compared to controls [1] | reduction in biomass compared to controls [2] [%] | Calculated EC50 on shoot biomass (spatterdock) [ppb] | Calculated EC50 on shoot biomass [3] [ppb] | Calculated EC50 on shoot biomass (tapegrass) [ppb] | Calculated EC50 on shoot biomass [5] [ppb] | Calculated EC50 on shoot biomass (maidencane) [ppb] | biomass reduction [6] | biomass reduction [7] | biomass reduction [8] [%] | further results
1 | 1-methyl-3-phenyl-5-3-(trifluoromethyl)phenyl-4(1H)-pyridinone [Fluridone] | 5.3 | 28.3 | no effect | ~50 | 2.5 | 10.1 | 4.4 | 14.4 | 4.4 | minimal affect | minimal affect | 60 | effect on fluridone tolerant biotype (stem length, biomass), in words [4]: little effect; stem length inhibited compared to control plants [4]: ~10%; effect on biomass, in words ([6]; up to 12 ppb): generally not affected; effect on biomass, in words ([7]; up to 12 ppb): generally not affected; minimum time maintained in contact with a target plant (target plant): ≥ 45 days
2 | O=C(O)C1C2CCC(O2)C1C(=O)O (centres unmarked) [Endothall, 7-oxabicyclo[2.2.1]heptane-2,3-dicarboxylic acid] |  |  |  |  |  |  |  |  |  |  |  |  | contact with hydrilla to achieve effective control (hydrilla [9]): less than 72 hours
3 | O=C(O)COc1nc(Cl)c(Cl)cc1Cl [Triclopyr, 3,5,6-trichloro-2-pyridyloxyacetic acid] |  |  |  |  |  |  |  |  |  |  |  |  | above ground biomass reduction (Eurasian watermilfoil): 96%; below ground biomass reduction (Eurasian watermilfoil): 74%
4 | COc1cnc(OC)n2nc(NS(=O)(=O)c3c(OCC(F)F)cccc3C(F)(F)F)nc12 [Penoxsulam] | 8.9 | 12.8 | ~40% | ~40 | 12.5 | 4.4 | 9.6 | 267.6 | 52.5 | 57% | 53% | 63 | inhibition at 0.012 ppm ([4]; Hydrilla verticillata, 600 h, read-out: stem length inhibited compared to control plants): ~40%; inhibition at 0.012 ppm [10]: 50 to 60%; contact time to achieve full hydrilla control (hydrilla [11]): greater than 4 months
